{
  "source": "PubChem BioAssay AID330",
  "about": "(DTP/NCI, 2004)",
  "tested_on": "P388 leukemia ip, CD2F1 mice, survival T/C",
  "test": "NCI In Vivo Anticancer Drug Screen. Data for tumor model P388 Leukemia (intraperitoneal) in CD2F1 (CDF1) mice",
  "conditions": "endpoint: median survival time, higher = longer survival",
  "procedure,_shortened": "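Mice carrying the transplanted tumor received test compound or vehicle. Survival was recorded in each group, and the value is the treated-group measurement divided by that of the vehicle-treated control group.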",
  "key": {"[1]": {"conditions": "dose: 50.0 mg/kg/injection, schedule: Q01DX009 (ip), vehicle: saline with Tween-80"}, "[2]": {"conditions": "dose: 100.0 mg/kg/injection, schedule: Q01DX009 (ip), vehicle: saline with Tween-80"}, "[3]": {"conditions": "dose: 200.0 mg/kg/injection, schedule: Q01DX009 (ip), vehicle: saline with Tween-80"}, "[4]": {"conditions": "dose: 12.5 mg/kg/injection, schedule: Q01DX009 (ip), vehicle: saline"}, "[5]": {"conditions": "dose: 60.0 mg/kg/injection, schedule: Q01DX005 (ip), vehicle: saline with Tween-80"}, "[6]": {"conditions": "dose: 120.0 mg/kg/injection, schedule: Q01DX005 (ip), vehicle: saline with Tween-80"}, "[7]": {"conditions": "dose: 240.0 mg/kg/injection, schedule: Q01DX005 (ip), vehicle: saline with Tween-80"}},
  "note": "“And” between values parts separate entries of the source, which are not always exact repeats. Identical values can stand only once. Toxic doses and inconclusive results are not listed.",
  "data": [
    {"smiles": "CC1=CC(C)(C)Nc2ccc(CSc3ccccc3)cc21", "values": [
      {"measurement": "T/C", "setting": "dose: 50.0 mg/kg/injection, schedule: Q01DX009 (ip), vehicle: DMSO", "result": "111 % of control"},
      {"measurement": "T/C", "setting": "[1]", "result": "104 % of control"},
      {"measurement": "T/C", "setting": "[2]", "result": "110 % of control"},
      {"measurement": "T/C", "setting": "[3]", "result": "96 % of control"}
    ]},
    {"smiles": "Nn1cnnc1N/N=C\\c1ccc(N(CCCl)CCCl)cc1", "values": [
      {"measurement": "T/C", "setting": "[4]", "result": "121 % of control and 122 % of control"},
      {"measurement": "T/C", "setting": "dose: 50.0 mg/kg/injection, schedule: Q01DX009 (ip), vehicle: saline", "result": "174 % of control and 188 % of control"},
      {"measurement": "T/C", "setting": "dose: 100.0 mg/kg/injection, schedule: Q01DX009 (ip), vehicle: saline", "result": "195 % of control and 209 % of control"}
    ]},
    {"smiles": "NC(N)=NCCCC(N=C1C=CC(=NC(CCCN=C(N)N)C(=O)O)C=C1)C(=O)O", "note": "(stereo not drawn)", "values": [
      {"measurement": "T/C", "setting": "dose: 50.0 mg/kg/injection, schedule: Q04DX002 (ip), vehicle: distilled water + alcohol", "result": "99 % of control"},
      {"measurement": "T/C", "setting": "dose: 100.0 mg/kg/injection, schedule: Q04DX002 (ip), vehicle: distilled water + alcohol", "result": "101 % of control"},
      {"measurement": "T/C", "setting": "dose: 200.0 mg/kg/injection, schedule: Q04DX002 (ip), vehicle: distilled water + alcohol", "result": "104 % of control"},
      {"measurement": "T/C", "setting": "dose: 400.0 mg/kg/injection, schedule: Q04DX002 (ip), vehicle: distilled water + alcohol", "result": "107 % of control"},
      {"measurement": "T/C", "setting": "dose: 600.0 mg/kg/injection, schedule: Q04DX002 (ip), vehicle: distilled water + alcohol", "result": "108 % of control"}
    ]},
    {"smiles": "O=[N+]([O-])c1ccc(Nc2ccccc2)c2nonc12", "values": [
      {"measurement": "T/C", "setting": "[5]", "result": "110 % of control"},
      {"measurement": "T/C", "setting": "[6]", "result": "97 % of control"},
      {"measurement": "T/C", "setting": "[7]", "result": "94 % of control"}
    ]},
    {"smiles": "O=C1c2ccccc2C(O)(C#Cc2ccccc2)c2c1oc1ccc3ccccc3c21", "note": "(stereo not drawn)", "values": [
      {"measurement": "T/C", "setting": "[1]", "result": "100 % of control"},
      {"measurement": "T/C", "setting": "[2]", "result": "92 % of control"},
      {"measurement": "T/C", "setting": "[3]", "result": "87 % of control"}
    ]},
    {"smiles": "Cc1cc(=O)oc2cc(OC(=O)Nc3ccc(Cl)c(Cl)c3)ccc12", "values": [
      {"measurement": "T/C", "setting": "dose: 3.12 mg/kg/injection, schedule: Q01DX009 (ip), vehicle: saline", "result": "101 % of control"},
      {"measurement": "T/C", "setting": "dose: 6.25 mg/kg/injection, schedule: Q01DX009 (ip), vehicle: saline", "result": "100 % of control"},
      {"measurement": "T/C", "setting": "[4]", "result": "101 % of control and 90 % of control"}
    ]},
    {"smiles": "N#CC1CC2OC1CC(=O)C2(O)c1occc(=O)c1O", "note": "(stereo not drawn)", "values": [
      {"measurement": "T/C", "setting": "[1]", "result": "100 % of control"},
      {"measurement": "T/C", "setting": "[2]", "result": "107 % of control"},
      {"measurement": "T/C", "setting": "[3]", "result": "105 % of control"}
    ]},
    {"smiles": "C/C=C1/CN2CCC34c5ccccc5N5C(=O)C(C6CC78c9ccccc9N9C(=O)C=CC(C%10CC7N6C/C%10=C/C)C98)=CC(C1CC23)C54", "note": "(stereo not drawn)", "values": [
      {"measurement": "T/C", "setting": "dose: 10.0 mg/kg/injection, schedule: Q01DX009 (ip), vehicle: saline with Tween-80", "result": "99 % of control"},
      {"measurement": "T/C", "setting": "dose: 20.0 mg/kg/injection, schedule: Q01DX009 (ip), vehicle: saline with Tween-80", "result": "104 % of control"},
      {"measurement": "T/C", "setting": "dose: 40.0 mg/kg/injection, schedule: Q01DX009 (ip), vehicle: saline with Tween-80", "result": "104 % of control"},
      {"measurement": "T/C", "setting": "dose: 80.0 mg/kg/injection, schedule: Q01DX009 (ip), vehicle: saline with Tween-80", "result": "88 % of control"}
    ]},
    {"smiles": "CCOC(=O)/C(C#N)=C/P(=O)(OCC)OCC", "values": [
      {"measurement": "T/C", "setting": "dose: 3.12 mg/kg/injection, schedule: Q04DX003 (ip), vehicle: Klucel (hydroxypropylcellulose) (HPC)", "result": "101 % of control"},
      {"measurement": "T/C", "setting": "dose: 6.25 mg/kg/injection, schedule: Q04DX003 (ip), vehicle: Klucel (hydroxypropylcellulose) (HPC)", "result": "100 % of control"},
      {"measurement": "T/C", "setting": "dose: 12.5 mg/kg/injection, schedule: Q04DX003 (ip), vehicle: Klucel (hydroxypropylcellulose) (HPC)", "result": "99 % of control"}
    ]},
    {"smiles": "O=c1c2ccccc2ncn1Cc1ccco1", "values": [
      {"measurement": "T/C", "setting": "dose: 50.0 mg/kg/injection, schedule: Q01DX005 (ip), vehicle: saline with Tween-80", "result": "98 % of control"},
      {"measurement": "T/C", "setting": "dose: 100.0 mg/kg/injection, schedule: Q01DX005 (ip), vehicle: saline with Tween-80", "result": "98 % of control"},
      {"measurement": "T/C", "setting": "dose: 200.0 mg/kg/injection, schedule: Q01DX005 (ip), vehicle: saline with Tween-80", "result": "99 % of control"}
    ]},
    {"smiles": "O=C(O)Cc1c(-c2noc(-c3ccccc3)c2CC(=O)O)noc1-c1ccccc1", "values": [
      {"measurement": "T/C", "setting": "[5]", "result": "99 % of control"},
      {"measurement": "T/C", "setting": "[6]", "result": "103 % of control"},
      {"measurement": "T/C", "setting": "[7]", "result": "108 % of control"}
    ]},
    {"smiles": "O=C1c2ccccc2C2N1CCC1CCc3ccccc3N12", "note": "(stereo not drawn)", "values": [
      {"measurement": "T/C", "setting": "[1]", "result": "92 % of control"},
      {"measurement": "T/C", "setting": "[2]", "result": "91 % of control"},
      {"measurement": "T/C", "setting": "[3]", "result": "89 % of control"}
    ]},
    {"smiles": "COC(=O)CC(O)(CCCC(C)(C)O)C(=O)OC1C(OC)=CC23CCCN2CCc2cc4c(cc2C13)OCO4", "note": "(stereo not drawn) (tested in a mixture with another compound)", "values": [
      {"measurement": "T/C", "setting": "dose: 0.5 mg/kg/injection, schedule: Q01DX009 (ip), vehicle: saline with Tween-80", "result": "153 % of control"},
      {"measurement": "T/C", "setting": "dose: 1.0 mg/kg/injection, schedule: Q01DX009 (ip), vehicle: saline with Tween-80", "result": "201 % of control"},
      {"measurement": "T/C", "setting": "dose: 2.0 mg/kg/injection, schedule: Q01DX009 (ip), vehicle: saline with Tween-80", "result": "206 % of control"}
    ]}
  ]
}
